In PMC7566811 (Bioorganic & medicinal chemistry, 2010):
Where a name gives a salt, the structure may show the parent alone. Each block holds one compound with its values, some of them ahead of it.

Columns and labels:
Oral cassette dosing PK = assay type: in vivo
[1] = Single dose pharmacokinetics in rats; settings: rat; for AUC: 30 mg/kg po, normalized to a dose of 30 mg/kg
[2] = ref 6a; cited from earlier work
T cell tropic (X4) HIV-1 = experiment: Anti-HIV activity against X4 HIV-1; assay type: cell-based
human CCR5 = human CCR5 (Homo sapiens, UniProt P51681); experiment: Inhibition of calcium mobilization of hCCR5/CHO cells stimulated with MIP-1α; assay type: cell-based
Chain of human CCR5 (P51681 whole entry): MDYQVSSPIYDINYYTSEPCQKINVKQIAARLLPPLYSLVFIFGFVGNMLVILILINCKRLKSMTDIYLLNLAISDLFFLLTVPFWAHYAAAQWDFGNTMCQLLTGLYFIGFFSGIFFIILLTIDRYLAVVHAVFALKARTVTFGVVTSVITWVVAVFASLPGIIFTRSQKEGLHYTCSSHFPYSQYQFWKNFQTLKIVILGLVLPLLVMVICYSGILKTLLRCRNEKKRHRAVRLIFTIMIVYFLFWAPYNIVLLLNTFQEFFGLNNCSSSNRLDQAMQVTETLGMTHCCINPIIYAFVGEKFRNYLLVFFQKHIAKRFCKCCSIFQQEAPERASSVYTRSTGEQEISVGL

AUC after oral cassette dosing (Oral cassette dosing PK): poor
SMILES: CCCCN1C(=O)[C@H](CC2CCCCC2)NC(=O)C12CCN(Cc1ccc(Oc3ccc(NS(C)(=O)=O)cc3)cc1)CC2.Cl [Compound 38, N-[4-(4-{[(3S)-1-Butyl-3-(cyclohexylmethyl)-2,5-dioxo-1,4,9-triazaspiro[5.5]undec-9-yl]methyl}phenoxy)phenyl]methanesulfonamide hydrochloride]

AUC [1]: 195 ng·h/mL
SMILES: CCCCN1C(=O)[C@H](CC2CCCCC2)NC(=O)C12CCN(Cc1ccc(Oc3ccc(O)cc3)cc1)CC2.Cl [Compound 36, (3S)-1-Butyl-3-(cyclohexylmethyl)-9-[4-(4-hydroxyphenoxy)benzyl]-1,4,9-triazaspiro[5.5]undecane-2,5-dione hydrochloride]

AUC after oral cassette dosing (Oral cassette dosing PK): poor
SMILES: CCCCN1C(=O)[C@H](CC2CCCCC2)NC(=O)C12CCN(Cc1ccc(Oc3ccc(S(N)(=O)=O)cc3)cc1)CC2.Cl [Compound 39, 4-(4-{[(3S )-1-Butyl-3-(cyclohexylmethyl)-2,5-dioxo-1,4,9-triazaspiro[5.5]undec-9-yl]methyl}phenoxy)benzenesulfonamide hydrochloride]

SMILES: CCCCN1C(=O)C(CC(C)C)NC(=O)C12CCN(Cc1ccc(Oc3ccccc3)cc1)CC2.Cl (stereo not drawn) [Compound 1b, 1-Butyl-3-isobutyl-9-(4-phenoxybenzyl)-1,4,9-triazaspiro[5.5]undecane-2,5-dione hydrochloride]
Cytotoxicity [2]: minimal

AUC [1]: 10,532 ng h/mL
SMILES: CCCCN1C(=O)[C@H](CC2CCCCC2)NC(=O)C12CCN(Cc1ccc(Oc3ccc(C(=O)O)cc3)cc1)CC2.Cl [Compound 40, 4-(4-{[(3S)-1-Butyl-3-(cyclohexylmethyl)-2,5-dioxo-1,4,9-triazaspiro[5.5]undec-9-yl]methyl}phenoxy)benzoic acid hydrochloride]
Activity against T cell tropic (X4) HIV-1 (T cell tropic (X4) HIV-1): inactive

BA ([1]; 30 mg/kg po vs 3 mg/kg iv): 34.1%
SMILES: CC(C)CC1NC(=O)C2(CCN(Cc3ccc(Oc4ccccc4)cc3)CC2)N(CCC(C)O)C1=O.Cl (stereo not drawn) [Compound 4, 1-(3-Hydroxybutyl)-3-isobutyl-9-(4-phenoxybenzyl)-1,4,9-triazaspiro[5.5]undecane-2,5-dione hydrochloride]

SMILES: CCCCN1C(=O)C(CC2CCCCC2)NC(=O)C12CCN(Cc1ccc(Oc3ccccc3)cc1)CC2.Cl (stereo not drawn) [Compound 1a, 1-Butyl-3-(cyclohexylmethyl)-9-(4-phenoxybenzyl)-1,4,9-triazaspiro[5.5]undecane-2,5-dione hydrochloride]
Cytotoxicity [2]: minimal

SMILES: CCCCN1C(=O)C(COC)NC(=O)C12CCN(Cc1ccc(Oc3ccccc3)cc1)CC2 (stereo not drawn) [Compound 13, 1-Butyl-3-(methoxymethyl)-9-(4-phenoxybenzyl)-1,4,9-triazaspiro[5.5]undecane-2,5-dione hydrochloride]
IC50 (human CCR5): 320 nM
